Consider twelve compounds from patent US20120010075A1 (priority 2009, published 2012).

Like-named read-outs stand apart in the source and are kept apart here.

Data set [1] relates to Leptosphaeria nodorum (LEPTNO). The data set is described as follows: Isolated metal-hydrazone complexes versus parent hydrazones, in vitro, Leptosphaeria nodorum (Example 31, Table 7). Type of data set: cell-based. The note with it: Parastagonospora nodorum; 0.1 μg/mL; copper-minus medium; 72 h.
In another data set the test system is Phytophthora infestans. The data set is classed as in vivo, Phytophthora infestans on tomato. Conditions: applied 24 h before inoculation, assessed 7 days after inoculation.
Data set [2] deals with Leptosphaeria nodorum (LEPTNO). The data set is described as follows: In vitro fungitoxicity of hydrazones with and without copper towards Leptosphaeria nodorum (Example 26). Type of data set: cell-based. The note with it: 72 h at 25° C.; for inhibition of growth at 0.05 µg/mL: Parastagonospora nodorum, 72 h, copper-minus medium, read-out: LEPTNO % Inhn. Minus Copper Observed.

Setting [3] is: hydrazone 50 ppm with 50 μM CuCl2.2H2O, tomato late blight.
Setting [4] is: test compound Concn. 0.05 μg/mL.
The mark [5] stands for this setting: copper-plus medium (CuCl2 10 μM), test compound Concn. 0.05 μg/mL.
[6] abbreviates: hydrazone 50 ppm + 50 μM CuCl2.2H2O, tomato.
Where [7] appears, read: compound 0.05 μg/mL, copper-plus medium (CuCl2.2H2O).

On to `O=C(N/N=C/c1ccc(Cl)c(Cl)c1O)c1ccc(Cl)cc1` [Example 359], for which the melting point fell in the range of 260 to 262 °C. Besides, the inhibition at 0.1 µg/mL in data set [1] was 24.1%. Also, the “TLB % Control” value in the data set with Phytophthora infestans (setting [3]) came out at 92.0%. Also, in data set [2] (setting [4]), the inhibition of growth at 0.05 µg/mL is 41.4%. Besides, the “LEPTNO % Inhn. Plus Copper Observed” value in data set [2] (setting [5]) was determined as 97.3%.

In turn, `O=C(N/N=C/c1cc(Br)cc(F)c1O)c1ccc(C(F)(F)F)cc1` [Example 412] had a melting point of 240 to 241 °C. The inhibition at 0.1 µg/mL in data set [1] is 40.4%. In addition, in the data set with Phytophthora infestans (setting [3]), the “TLB % Control” value was found to be 100.0%. For the same compound, the inhibition of growth at 0.05 µg/mL in data set [2] (setting [4]) worked out at 7.7%. The “LEPTNO % Inhn. Plus Copper Observed” value in data set [2] (setting [5]) stood at 97.8%.

With `O=C(N/N=C/c1c(O)cccc1Cl)c1ccccc1` [Example 236], the melting point lay within 247 to 248 °C. In data set [1], the inhibition at 0.1 µg/mL was found to be 4.7%. In addition, the “TLB % Control” value with Phytophthora infestans (setting [6]) was found to be 88.1%. Besides, the inhibition of growth at 0.05 µg/mL in data set [2] (compound 0.05 μg/mL) stood at 3.5%. Further, in data set [2] (setting [7]), the “LEPTNO % Inhn. Plus Copper Observed” value worked out at 97.0%.

`COc1cccc(/C(C)=N/NC(=O)c2ccccc2)c1O` [Example 299] had a melting point of 146 to 148 °C. Besides, the inhibition at 0.1 µg/mL in data set [1] was 18.6%. Moreover, the “TLB % Control” value with Phytophthora infestans (setting [3]) is given as 74.0%. Besides, the inhibition of growth at 0.05 µg/mL in data set [2] (setting [4]) was determined as 0%. Further, in data set [2] (setting [5]), the “LEPTNO % Inhn. Plus Copper Observed” value is 97.9%.

On to `COc1cccc(/C(C)=N/NC(=O)c2cccc(C)c2)c1O` [Example 301], for which the melting point fell in the range of 121 to 123 °C. Also, the inhibition at 0.1 µg/mL in data set [1] was 3.5%. Also, the “TLB % Control” value in the data set with Phytophthora infestans (setting [3]) came to 82.0%. Further, the inhibition of growth at 0.05 µg/mL in data set [2] (setting [4]) turned out to be 0%. The “LEPTNO % Inhn. Plus Copper Observed” value in data set [2] (setting [5]) was 97.9%.

For the compound `O=C(N/N=C/c1c(C(F)(F)F)ccc(Cl)c1O)c1ccc(Cl)cc1` [Example 452], the melting point was 236 to 238 °C. In addition, in data set [1], the inhibition at 0.1 µg/mL came out at 19.3%. Also, the “TLB % Control” value in the data set on Phytophthora infestans (setting [3]) was 100.0%. For the same compound, the inhibition of growth at 0.05 µg/mL in data set [2] (setting [4]) worked out at 12.9%. For the same compound, the “LEPTNO % Inhn. Plus Copper Observed” value in data set [2] (setting [5]) was determined as 100.0%.

As for `Cc1ccc(C(=O)N/N=C/c2cc(Br)cc(F)c2O)cc1` [Example 411], the melting point was 228 to 229 °C. For the same compound, the inhibition at 0.1 µg/mL in data set [1] was determined as 32.1%. Further, the “TLB % Control” value with Phytophthora infestans (setting [3]) is listed as 85.0%. The inhibition of growth at 0.05 µg/mL in data set [2] (setting [4]) stood at 8.2%. In addition, the “LEPTNO % Inhn. Plus Copper Observed” value in data set [2] (setting [5]) came to 97.9%.

`C/C(=N\NC(=O)c1cccc(C)c1)c1cc(Cl)cc(Cl)c1O` [Example 278]: the melting point lay in the range of 221 to 223 °C. The inhibition at 0.1 µg/mL in data set [1] came to 16.2%. For the same compound, the “TLB % Control” value in the data set with Phytophthora infestans (setting [6]) was found to be 90.0%. Besides, in data set [2] (compound 0.05 μg/mL), the inhibition of growth at 0.05 µg/mL came out at 1.7%. Also, the “LEPTNO % Inhn. Plus Copper Observed” value in data set [2] (setting [7]) is recorded as 97.7%.

Take `O=C(N/N=C/c1c(O)cccc1Cl)c1ccc(Cl)cc1` [Example 403]: the melting point was 273 to 277 °C. In addition, the inhibition at 0.1 µg/mL in data set [1] was 12.1%. Besides, the “TLB % Control” value with Phytophthora infestans (setting [3]) is 97.0%. In addition, the inhibition of growth at 0.05 µg/mL in data set [2] (setting [4]) was found to be 0%. In addition, the “LEPTNO % Inhn. Plus Copper Observed” value in data set [2] (setting [5]) is listed as 97.3%.

With `COc1cccc(/C(C)=N/NC(=O)c2ccccc2C)c1O` [Example 300], the melting point lay in the range of 208 to 209 °C. In data set [1], the inhibition at 0.1 µg/mL was determined as 2.5%. Moreover, the “TLB % Control” value with Phytophthora infestans (setting [3]) stood at 70.0%. For the same compound, in data set [2] (setting [4]), the inhibition of growth at 0.05 µg/mL was determined as 0%. Also, the “LEPTNO % Inhn. Plus Copper Observed” value in data set [2] (setting [5]) worked out at 97.2%.

In the case of `O=C(N/N=C/c1cc(C(F)(F)F)ccc1O)c1ccc(Cl)cc1` [Example 440], the melting point lay within 252 to 254 °C. Besides, in data set [1], the inhibition at 0.1 µg/mL stood at 23.8%. Moreover, in the data set with Phytophthora infestans (setting [3]), the “TLB % Control” value worked out at 98.0%. The inhibition of growth at 0.05 µg/mL in data set [2] (setting [4]) is 2.9%. Further, in data set [2] (setting [5]), the “LEPTNO % Inhn. Plus Copper Observed” value was 100.0%.

`O=C(N/N=C/c1cccc(C(F)(F)F)c1O)c1ccc(Cl)cc1` [Example 348] returned a melting point of 215 to 216 °C. For the same compound, the inhibition at 0.1 µg/mL in data set [1] is 23.9%. In the data set on Phytophthora infestans (setting [3]), the “TLB % Control” value turned out to be 100.0%. Also, the inhibition of growth at 0.05 µg/mL in data set [2] (setting [4]) amounted to 16.3%. The “LEPTNO % Inhn. Plus Copper Observed” value in data set [2] (setting [5]) amounted to 98.3%.
